In brackets after ≈: the same amount, converted by molar mass.
Key:
WT clinical isolates = assay: MIC broth microdilution, WT; assay type: cell-based; conditions: read-out: MIC WT, clinical isolates, IMM Univ. Zurich; wild type
Summary of the method: (§1)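 Clinical isolates supplied by the Zurich Institute of Medical Microbiology were tested for MIC (μg/ml) using CLSI M07-A10 broth microdilution.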

[1] = system: clinical isolates carrying AAC(3)-IV; assay: MIC broth microdilution, AAC(3)-IV; assay type: cell-based; conditions: clinical isolates, IMM Univ. Zurich; AAC(3)-IV; read-out: MIC AAC(3)-IV
Summary of the method: as §1

[2] = system: clinical isolates carrying APH(3′)-I; assay: MIC broth microdilution, APH(3′)-I; assay type: cell-based; conditions: IMM Univ. Zurich
[3] = system: clinical isolates carrying APH(3′)-III; assay: MIC broth microdilution, APH(3′)-III; assay type: cell-based; conditions: IMM Univ. Zurich
[4] = system: clinical isolates carrying APH(3′)-VI; assay: MIC broth microdilution, APH(3′)-VI; assay type: cell-based; conditions: IMM Univ. Zurich
isolates carrying apmA = assay: MIC broth microdilution, apmA; assay type: cell-based; conditions: apmA resistance gene
Summary of the method: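 Clinical isolates carrying apmA, from the University of Zurich Institute of Medical Microbiology, were tested by broth microdilution following CLSI M07-A10; values are MICs in μg/ml.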

bacterial ribosomes = assay: in-vitro translation assay, bacterial ribosomes; assay type: biochemical
Summary of the method: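 Inhibitory potency was determined as IC50 in in-vitro translation systems based on bacterial ribosomes, human chimeric (mitochondrial-type) ribosomes or rabbit reticulocyte (cytosolic) ribosomes.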

[5] = system: human mitochondrial ribosomes; assay: in-vitro translation assay, human mitochondrial (human chimeric) ribosomes; assay type: biochemical
Summary of the method: (§2)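 Translation inhibition is measured in vitro with isolated ribosomes, and IC50 derived. The human cytosolic values actually use rabbit reticulocyte ribosomes, and the mitochondrial values use human chimeric ribosomes.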

[6] = system: human cytosolic ribosomes; assay: in-vitro translation assay, human cytosolic ribosomes; assay type: biochemical
Summary of the method: as §2

[7] = system: AG212, Escherichia coli ATCC25922; assay: MIC reference strain AG212; assay type: cell-based; conditions: Escherichia coli; reference strain ATCC25922; read-out: MIC AG212 E. coli
Summary of the method: (§3)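 Broth microdilution per CLSI standard M07-A10 gave the minimal inhibitory concentrations.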

[8] = system: AG215, Klebsiella pneumonia; assay: MIC reference strain AG215; assay type: cell-based; conditions: Klebsiella pneumoniae, reference strain; read-out: MIC AG215 K. pneumonia
Summary of the method: as §3

[9] = system: AG290, Enterobacter cloacae; assay: MIC reference strain AG290; assay type: cell-based; conditions: Enterobacter cloacae; reference strain; read-out: MIC AG290 E. cloacae
Summary of the method: as §3

[10] = system: AG220, Pseudomonas aeruginosa ATCC27853; assay: MIC reference strain AG220; assay type: cell-based; conditions: Pseudomonas aeruginosa, ATCC27853, reference strain ATCC27853; read-out: MIC AG220 P. aeruginosa
Summary of the method: as §3

[11] = system: AG225, Acinetobacter baumannii pittii; assay: MIC reference strain AG225; assay type: cell-based; conditions: Acinetobacter baumannii, reference strain; read-out: MIC AG225 A. baumannii
Summary of the method: as §3

ATCC19977 M. abcessus = assay: MIC reference strain ATCC19977; assay type: cell-based; conditions: reference strain; read-out: MIC ATCC19977 M. abcessus
Summary of the method: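 Susceptibility was tested per CLSI aerobic dilution protocol using microbroth format, with the MIC taken as the end point.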

N. gonorrhoeae = assay: Disk diffusion N. gonorrhoeae; assay type: cell-based
AG001 E. coli WT = assay: Antibacterial activity, clinical isolate AG001; assay type: cell-based; design: unit not given here
Summary of the method: (§4)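 Clinical isolates tested by CLSI M07-A10 broth microdilution, with minimal inhibitory concentration as the read-out.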

AG055 E. coli WT = assay: Antibacterial activity, clinical isolate AG055; assay type: cell-based; design: unit not given here
Summary of the method: as §4

AG003 E. coli AAC(3)-II = assay: Antibacterial activity, clinical isolate AG003; assay type: cell-based
Summary of the method: as §4

AG173 E. coli AAC(3)-IV = assay: Antibacterial activity, clinical isolate AG173; assay type: cell-based
Summary of the method: as §4

AG163 E. coli APH(3′)-I = assay: Antibacterial activity, clinical isolate AG163; assay type: cell-based
Summary of the method: as §4

AG038 MRSA = assay: Antibacterial activity, clinical isolate AG038; assay type: cell-based; design: unit not given here
Summary of the method: as §4

[12] = system: AG039 MRSA AAC(6′)-I ANT(4′)-I; assay: Antibacterial activity, clinical isolate AG039; assay type: cell-based
Summary of the method: as §4

[13] = system: AG042 MRSA AAC(6′)-I ANT(4′)-I APH(2′); assay: Antibacterial activity, clinical isolate AG042; assay type: cell-based; design: unit not given here
Summary of the method: as §4

AG031 P. aer. APH(3′)-II = assay: Antibacterial activity, clinical isolate AG031; assay type: cell-based; design: unit not given here
Summary of the method: as §4

AG032 P. aer. APH(3′)-II = assay: Antibacterial activity, clinical isolate AG032; assay type: cell-based; design: unit not given here
Summary of the method: as §4

[14] = system: AG033 P. aer. APH(3′)-II AAC(6′)-I; assay: Antibacterial activity, clinical isolate AG033; assay type: cell-based; design: unit not given here
Summary of the method: as §4

[15] = system: Engineered E. coli pH430 WT; assay: Activity, engineered E. coli pH430 WT; assay type: cell-based; conditions: wild type
Summary of the method: (§5)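 Susceptibility was measured as minimal inhibitory concentration using a standardized broth microdilution protocol (CLSI document M07-A10).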

[16] = system: Engineered E. coli AG103 armA; assay: Activity against G1405-methylated 16S-rRNA, E. coli AG103 armA; assay type: cell-based
Summary of the method: as §5

[17] = system: Engineered E. coli pH424 armA; assay: Activity against G1405-methylated 16S-rRNA, E. coli pH424 armA; assay type: cell-based
Summary of the method: as §5

[18] = system: Engineered E. coli pH425 rmtB; assay: Activity against G1405-methylated 16S-rRNA, E. coli pH425 rmtB; assay type: cell-based
Summary of the method: as §5

[19] = system: Engineered E. coli pH426 rmtC; assay: Activity against G1405-methylated 16S-rRNA, E. coli pH426 rmtC; assay type: cell-based
Summary of the method: as §5

[20] = system: Engineered E. coli pH427 rmtF; assay: Activity against G1405-methylated 16S-rRNA, E. coli pH427 rmtF; assay type: cell-based
Summary of the method: as §5

[21] = system: E. coli AG153 AAC(3)-II APH(3′)-II rmtB; assay: Activity against G1405-methylated 16S-rRNA, clinical isolate AG153; assay type: cell-based
Summary of the method: as §5

[22] = system: K. pneum. AG269 AAC(3)-II AAC(6′)-I rmtB; assay: Activity against G1405-methylated 16S-rRNA, clinical isolate AG269; assay type: cell-based
Summary of the method: as §5

[23] = system: Enterob. AG302 AAC(3)-II AAC(6′)-I rmtC; assay: Activity against G1405-methylated 16S-rRNA, clinical isolate AG302; assay type: cell-based
Summary of the method: as §5

[24] = system: A baum. AG227 APH(3′)-I armA; assay: Activity against G1405-methylated 16S-rRNA, clinical isolate AG227; assay type: cell-based
Summary of the method: as §5

[25] = system: clinical isolates carrying APH(3′)-II; assay: MIC broth microdilution, APH(3′)-II; assay type: cell-based; conditions: clinical isolates, IMM Univ. Zurich; APH(3′)-II; read-out: MIC APH(3′)-II
[26] = system: Enterobacteriaceae, Pseudomonas, Acinetobacter, and Mycobacteria; assay: Antibacterial potency, Tables 4+5 overall; assay type: cell-based; conditions: against Enterobacteriaceae, Mycobacteria (Tables 4+5)
From the text: Minimal inhibitory concentrations (MIC) have been determined by broth microdilution assays (CLSI. Methods for Dilution Antimicrobial Susceptibility Tests for Bacteria That Grow Aerobically; Approved Standard—Tenth Edition. CLSI document M07-A10. Wayne, Pa.: Clinical and Laboratory Standards Institute; 2015.).

Row | SMILES | MIC [1] | MIC [2] | MIC [3] | MIC [4] | IC50 (bacterial ribosomes) | IC50 [5] | IC50 [6] | MIC [7] | MIC [8] | MIC [9] | MIC [10] | MIC [11] | Antibacterial activity AG001 E. coli WT (AG001 E. coli WT) | Antibacterial activity AG055 E. coli WT (AG055 E. coli WT) | Antibacterial activity AG003 E. coli AAC(3)-II (AG003 E. coli AAC(3)-II) | Antibacterial activity AG173 E. coli AAC(3)-IV (AG173 E. coli AAC(3)-IV) | Antibacterial activity AG163 E. coli APH(3′)-I (AG163 E. coli APH(3′)-I) | Antibacterial activity AG038 MRSA (AG038 MRSA) | Antibacterial activity AG039 MRSA AAC(6′)-I ANT(4′)-I [12] | Antibacterial activity AG042 MRSA AAC(6′)-I ANT(4′)-I APH(2′) [13] | other results
1 | CNC1C(O[C@H]2OC(CO)[C@@H](N)C(O)C2O)O[C@H]2CC(N)[C@@H](O[C@@H]3C(N)C[C@@H](N)C(O)C3O)OC2C1O (stereo partly drawn) [apramycin] | > 128 µg/mL | 1 to 2 µg/mL (≈ 1.85 to 3.71 µM) | 1 µg/mL (≈ 1.85 µM) | 4 µg/mL (≈ 7.41 µM) | 0.08 µM | 68 µM | 71 µM | 4 µg/mL | 2 µg/mL | 4 µg/mL | 4 µg/mL | 4 µg/mL | 8-16 | 8 | 8 | ≥128 | 4 | 4-8 | 8 | 8 | MIC (WT clinical isolates): 2 to 4 µg/mL (≈ 3.71 to 7.41 µM); MIC (isolates carrying apmA): 64 µg/mL (≈ 119 µM); MIC (ATCC19977 M. abcessus): 2 µg/mL (≈ 3.71 µM); Disk diffusion 25 nmol N. gonorrhoeae (N. gonorrhoeae): <8 mm; Antibacterial activity AG031 P. aer. APH(3′)-II (AG031 P. aer. APH(3′)-II): 8-16; Antibacterial activity AG032 P. aer. APH(3′)-II (AG032 P. aer. APH(3′)-II): 8; Antibacterial activity AG033 P. aer. APH(3′)-II AAC(6′)-I [14]: 16-32; Activity E. coli pH430 WT [15]: 2-4; Activity E. coli AG103 armA [16]: 1-2; Activity E. coli pH424 armA [17]: 2-4; Activity E. coli pH425 rmtB [18]: 4; Activity E. coli pH426 rmtC [19]: 4; Activity E. coli pH427 rmtF [20]: 4; Activity E. coli AG153 AAC(3)-II APH(3′)-II rmtB [21]: 8; Activity K. pneum. AG269 AAC(3)-II AAC(6′)-I rmtB [22]: 2; Activity Enterob. AG302 AAC(3)-II AAC(6′)-I rmtC [23]: 4; Activity A baum. AG227 APH(3′)-I armA [24]: 2
2 | CNC1C(OC2OC(CO)C(N)C(O)C2O)OC2CC(N)C(OC3C(N)CC(N)C(O)C3OC3OC(CN)C(OCCN)C3O)OC2C1O [DC185, 5-O-β-[5-Amino-3-O-(2-aminoethyl)-5-deoxy-D-ribofuranosyl] apramycin] | > 32 µg/mL | 1 µg/mL (≈ 1.4 µM) | 0.25 µg/mL (≈ 0.35 µM) | 2 µg/mL (≈ 2.8 µM) | 0.03 µM | 34 µM | 26 µM | 2 µg/mL | 0.5 to 1 µg/mL | 1 µg/mL | 1 to 2 µg/mL | 2 µg/mL | 2 | 2 | 1-2 | 4 | 2 | 1 | 1 | 1 | MIC [25]: 1 µg/mL (≈ 1.4 µM); Antibacterial activity AG031 P. aer. APH(3′)-II (AG031 P. aer. APH(3′)-II): 2; Antibacterial activity AG032 P. aer. APH(3′)-II (AG032 P. aer. APH(3′)-II): 2; Antibacterial activity AG033 P. aer. APH(3′)-II AAC(6′)-I [14]: 2; Activity E. coli pH430 WT [15]: 1; Activity E. coli AG103 armA [16]: 0.5-1; Activity E. coli pH424 armA [17]: 2; Activity E. coli pH425 rmtB [18]: 2; Activity E. coli pH426 rmtC [19]: 2; Activity E. coli pH427 rmtF [20]: 2; Activity E. coli AG153 AAC(3)-II APH(3′)-II rmtB [21]: 4; Activity K. pneum. AG269 AAC(3)-II AAC(6′)-I rmtB [22]: 1; Activity Enterob. AG302 AAC(3)-II AAC(6′)-I rmtC [23]: 1; Activity A baum. AG227 APH(3′)-I armA [24]: 2; antibacterial potency [26]: increased antibacterial potency

Reference: patent US11485751B2, “Apramycin derivatives” (WAYNE STATE UNIVERSITY, priority 2017, dated 2022)
